From patent US8603989B2, “Method for treating and preventing kidney stones employing an SGLT2 inhibitor and composition containing same” (Bristol-Myers Squibb Company, priority 2008, dated 2013)

What was measured:
[1] = test system: healthy subjects; conditions: healthy subjects, 5, 20, 50 or 100 mg, within 24 hours, indirect comparison
[2] = test system: diabetic patients; experiment: 12-week treatment of diabetic patients: urine glucose, HbA1c, urine volume (Table 5); format: in vivo, human
[3] = test system: patients with diabetes; conditions: patients with diabetes, 5, 25 or 100 mg
From the text: The levels of urine glucose of all subjects are shown in the plot and the mean urine glucose is in the darker lines.

[4] = test system: type 2 diabetic patients
From the text: C-aryl glucoside SGLT2 inhibitors are known to reduce blood glucose levels in diabetic patients, see U.S. Pat. No. 6,774,112, which is incorporated herein by reference in its entirety, but not known to increase urine volume. […] Metformin reduces plasma glucose concentration by non-renal mechanisms and is not known to induce glucosuria. […] On day 1 and day 14, the patients were examined for the levels of glucosuria and changes in urine volumes.

[5] = test system: human SGLT2 (hSGLT2) relative to human SGLT1 (hSGLT1); conditions: ratio of EC50 in favor of SGLT2
Method: Selectivity for SGLT2 of a given inhibitor can be determined by comparing the EC50 values measured in the SGLT1 and SGLT2 assay. […] Cells expressing hSGLT1 or hSGLT2 were maintained using standard cell culture techniques. Assays for sodium-dependent glucose transport in 96-well plates were initiated by adding 100 μl/well of protein-free assay buffer containing sodium (Hepes/Tris pH 7.4, 137 mM NaCl, 5.4 mM KCl, 2.8 mM CaCl2, 1.2 mM MgSO4), 10 μM ^14C-AMG and inhibitor or dimethyl sulfoxide (DMSO) vehicle, and plates were incubated for 2 h at 37° C. Sodium-dependent ^14C-AMG uptake was calculated by subtracting the counts per minute (CPM) observed under sodium-free uptake conditions from the counts observed under sodium-containing conditions. Inhibitors were assayed at various concentrations in triplicate in the presence of sodium, and the percent inhibition was calculated by comparing CPM in inhibitor-containing wells with CPM in wells containing only DMSO vehicle. Phlorizin, a known SGLT inhibitor, was evaluated in parallel in every assay. A dose-response curve was fitted to an empirical four-parameter model using XL Fit (IDBS, Guilford, UK) to determine the inhibitor concentration at half-maximal response (EC50). SGLT2 selectivity is represented as a ratio of EC50 in favor of SGLT2.

[6] = 2.5-50 mg, after 12 weeks of treatment

SMILES: CCOc1ccc(Cc2cc([C@@H]3O[C@H](CO)[C@@H](O)[C@H](O)[C@H]3O)ccc2Cl)cc1 [dapagliflozin PGS, dapagliflozin (S)-propylene glycol solvate]
- glucosuric effect, loss of calories in the urine as compared to GSK 869,682 [1]: significant loss of calories in the urine
- OGT [2, 6]: improved
- reduced HbAlC levels [2, 6]: 0.71-0.9%
- urine glucose excretion compared to placebo [3]: higher
- fasting serum glucose (FSG) levels ([4]; two-week period): Dose-dependent reduction
- postprandial glucose levels in oral glucose tolerance tests (OGTT) ([4]; two-week period): reduced
- urine volumes ([4]; two-week period): no increase
- urinary glucose levels within a 24-hour time period ([4]; versus placebo, FIG. 3): increased

SMILES: CN(C)C(=N)N=C(N)N [Metformin, reference compound]
- HbA1c reduction from baseline ([2]; 1500 mg metformin, 12 weeks): 0.73%

SMILES: CCOc1ccc(Cc2cc([C@@H]3O[C@H](CO)[C@@H](O)[C@H](O)[C@H]3O)ccc2Cl)cc1 [dapagliflozin]
- selectivity for SGLT2 relative to SGLT1 [5]: High selectivity for SGLT2
